# From article PMC11587510, “Aromatic Amino Acid Hydroxylases as Off-Targets of Histone Deacetylase Inhibitors” (ACS Chemical Neuroscience, 2024)
# Values joined by “and” are separate entries in the source; they are usually repeats but may differ in a detail not shown here. Identical values can stand only once. Like-named read-outs stand apart in the source and are kept apart here.
# What was measured:
# HDAC 1 = conditions: human recombinant HDAC, cited from earlier work
# [1] = system: AAAHs (PAH, TH, TPH1, TPH2); assay: Enzyme activity assays, statement over all four AAAHs; type: biochemical, human
# Protocol: (§1) The activity of purified PAH, TH, TPH1, and TPH2 was measured using high-performance liquid chromatography (HPLC) as previously described.[50],[56],[57]
# TPH1 enzymatic activity assays were performed with the selected hits from the DSF screening in the presence and absence of 50 μM of each compound. The final concentration of DMSO was 0.5% (v/v), and control experiments used 0.5% DMSO in the absence of ligand. Assays were performed in a standard reaction mixture containing 40 mM Hepes pH 7.0, 200 mM NaCl, 0.1 mg/mL catalase, 0.5 mg/mL BSA, 10 μM ferrous ammonium sulfate, and 30 μM L-tryptophan (L-Trp). Compounds were incubated with TPH1 (0.02 mg/mL) in the reaction mixture for 10 min on ice. The enzymatic reaction was initiated by adding 200 μM BH4 and 2 mM DTT (final concentrations) and stopped by precipitation with 2% (v/v) acetic acid in ethanol after 3 min at 37 °C. The product, 5-hydroxy-tryptophan (5-OH-Trp), was quantified by HPLC utilizing a fluorescence monitor set at 302 and 350 nm for excitation and emission, respectively. […]. […]
# PAH activities were performed in a standard reaction mixture containing 100 mM Hepes (pH 7.0), 0.04 mg/mL catalase, 0.05% BSA, 10 μM ferrous ammonium sulfate, and 1 mM phenylalanine (Phe). […] The product, L-Tyrosine (L-Tyr), was quantified by HPLC utilizing a fluorescence monitor set at 274 and 304 nm for excitation and emission, respectively. […]
# HDAC 8 = conditions: human recombinant HDAC, cited from earlier work
# TPH1 = molecular target: T1, TPH1 (Homo sapiens, UniProt P17752); assay: Differential scanning fluorimetry (DSF) thermal stability assay; type: binding; conditions: DSF, 50 μM compound
# T1 construct: doubly truncated human TPH1 (ΔNH102-ΔCOOH402); made in house; host or cells: E. coli BL21(DE3)
# Protocol: A fluorescence-based thermal stability assay (differential scanning fluorimetry, DSF) was used for testing the effects of HDIs on the thermal stability of TPH1.
# For initial high throughput screening (HTS), compounds were prepared at a concentration of 10 mM (in some cases, 5 mM) in 100% DMSO. Initial HTS screening was performed on TPH1 with and without compounds using a LightCycler 480 Real-Time PCR System (Roche Applied Science). TPH1 was diluted to 0.075 mg/mL in 50 mM Tris pH 8.0, 200 mM NaCl, 0.5 mM TCEP, and 5% glycerol with 5x SYPRO Orange. Compounds were added to a final concentration of 50 μM. Controls with 0.5% DMSO were performed on each 384-well microplate. Unfolding curves were recorded from 20 to 95 °C at a scan rate of 2 °C/min and monitored at excitation = 465 nm and emission = 610 nm. Selected hits were validated further by serial dilution from 250 μM to 122 nM, keeping the DMSO concentration constant at 2%.
# DSF data were analyzed using HTSDSF Explorer.[55] Melting temperature (Tm) was calculated from the maximum value of the first derivative of the unfolding curve. ΔTm (Tm with compound–averaged Tm in DMSO controls) was plotted for all validated curves and a threshold of 2 °C was set (typically, cutoff at ΔTm = 3-fold the SD of the Tm of the DMSO control).
# Preliminary binding constants (KD) were calculated by fitting data to the equation [drawing 1] where ΔH0 is the enthalpy of the unfolding of the protein in the presence of ligand ([L]), and R is the gas constant.
# human TPH2 = molecular target: T2, human TPH2 (Homo sapiens, UniProt Q8IWU9); assay: TPH2 enzyme activity assay (HPLC); type: biochemical; conditions: best-fit IC50 (± SE), nonlinear regression; N.A. = no activity
# T2 construct: Full-length human TH isoform 1 (TH1), human PAH, human TPH2, and doubly truncated human TPH1; MBP (cleaved yes); made in house; host or cells: E. coli BL21(DE3)
# T2 sequence (Q8IWU9 1-490): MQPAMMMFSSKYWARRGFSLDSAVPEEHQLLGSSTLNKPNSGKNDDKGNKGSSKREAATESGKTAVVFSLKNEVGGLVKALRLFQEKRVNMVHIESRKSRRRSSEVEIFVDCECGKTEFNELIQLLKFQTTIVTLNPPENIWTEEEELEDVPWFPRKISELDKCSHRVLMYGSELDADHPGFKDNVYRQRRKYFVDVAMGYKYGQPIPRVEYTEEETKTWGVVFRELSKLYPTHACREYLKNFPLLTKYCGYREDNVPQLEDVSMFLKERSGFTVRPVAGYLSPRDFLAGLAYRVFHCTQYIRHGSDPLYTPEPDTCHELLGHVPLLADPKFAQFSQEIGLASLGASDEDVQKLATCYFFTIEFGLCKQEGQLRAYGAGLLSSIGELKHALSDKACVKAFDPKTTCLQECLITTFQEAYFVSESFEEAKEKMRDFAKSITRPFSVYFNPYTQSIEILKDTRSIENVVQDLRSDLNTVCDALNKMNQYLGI
# human TH isoform 1 (TH1) = molecular target: T3, human TH isoform 1 (TH1) (Homo sapiens, UniProt P07101); assay: TH enzyme activity assay (HPLC, L-DOPA); type: biochemical; conditions: best-fit IC50 (± SE), nonlinear regression; N.A. = no activity
# T3 construct: Full-length human TH isoform 1 (TH1); His6-ZZ fusion partner (one of the two preparations only) (cleaved yes); made in house; host or cells: E. coli BL21(DE3) pLysS (pET3a) or BL21 CodonPlus (pET-ZZ-1a)
# Protocol: as §1
# TH activities were performed in a standard reaction mixture containing 40 mM Hepes (pH 7.0), 0.1 mg/mL catalase, 10 μM ferrous ammonium sulfate, and 50 μM L-Tyr. Compounds were incubated with TH (0.01 mg/mL) in the reaction mixture for 10 min on ice. The enzymatic reaction was initiated by adding 200 μM BH4 and 2 mM DTT (final concentrations) and stopped by precipitation with 2% (v/v) acetic acid in ethanol after 5 min at 37 °C. The product, L-DOPA, was quantified by HPLC utilizing a fluorescence monitor set at 281 and 314 nm for excitation and emission, respectively.
# GraphPad Prism (version 10; La Jolla, CA) was used for analyzing the enzyme inhibition data.
# HDAC 6 = conditions: human recombinant HDAC; ref 6 (10.1002/cmdc.201800238); cited from earlier work
# human PAH = molecular target: T4, human PAH (Homo sapiens, UniProt P00439); assay: PAH enzyme activity assay (HPLC, L-Tyr); type: biochemical
# T4 construct: Full-length human TH isoform 1 (TH1), human PAH, human TPH2, and doubly truncated human TPH1; made in house; host or cells: E. coli TB1
# T4 sequence (P00439 1-452): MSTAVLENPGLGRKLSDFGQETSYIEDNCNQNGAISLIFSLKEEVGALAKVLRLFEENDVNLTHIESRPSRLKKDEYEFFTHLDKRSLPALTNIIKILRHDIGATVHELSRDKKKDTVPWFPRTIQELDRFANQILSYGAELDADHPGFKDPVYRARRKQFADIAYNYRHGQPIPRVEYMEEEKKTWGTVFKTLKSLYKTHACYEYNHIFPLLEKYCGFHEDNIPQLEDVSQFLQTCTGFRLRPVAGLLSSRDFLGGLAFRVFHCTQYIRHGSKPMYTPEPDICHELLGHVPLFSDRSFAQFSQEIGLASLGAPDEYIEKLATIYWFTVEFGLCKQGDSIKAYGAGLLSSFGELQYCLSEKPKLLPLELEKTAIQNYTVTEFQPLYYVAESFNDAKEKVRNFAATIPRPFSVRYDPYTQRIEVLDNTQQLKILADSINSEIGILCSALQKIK
# [2] = molecular target: T5, doubly truncated human TPH1 (ΔNH102-ΔCOOH402) (Homo sapiens, UniProt P17752); assay: TPH1 enzyme activity assay (HPLC, 5-OH-Trp); type: biochemical; conditions: best-fit IC50 (± SE), nonlinear regression; N.A. = no activity
# T5 construct: doubly truncated human TPH1 (ΔNH102-ΔCOOH402); made in house; host or cells: E. coli BL21(DE3)
# endogenous PAH = molecular target: T6, endogenous PAH (Homo sapiens, UniProt P00439); assay: Cellular thermal shift assay (CETSA) in HepG2 cells; type: cell-based; conditions: 50 μM compound, 1 h, vs DMSO
# T6 construct: increased melting temperatures (ΔTm) of endogenous PAH; endogenous in cells; host or cells: HepG2
# T6 sequence (P00439 1-452): T4 sequence (P00439 1-452)
# Protocol: Then, cells were washed, harvested using trypsin, and pelleted by centrifugation. The pellet was washed twice with PBS supplemented with complete EDTA-free protease inhibitor cocktail (Roche) and divided into 14 aliquots of 35 μL containing 800,000 cells. Cells were then frozen in liquid nitrogen and thawed at 25 °C three times, and each aliquot was heated to a defined temperature by applying a gradient between 39 °C and 69 °C in a thermocycler (peQSTAR, PeQlab; 16-well gradient, 54 °C ± 15 °C). After 3 min incubation, aliquots were snap frozen in liquid nitrogen and thawed at 25 °C. Cell lysates were centrifuged at 20,000 g (4 °C) for 20 min. Supernatants were mixed with 5x loading buffer, heated to 70 °C for 5 min and analyzed by Western blotting. Chemoluminescence signals were recorded with a FusionSL, Vilber Lourmat (peQlab) and quantified using FusionCapt Advance FX7 16.01c software. Calculation of ΔTm was conducted using the Boltzmann sigmoidal model in GraphPad prism 7.01.
# Cell lysates used for Western blot analysis were prepared as described in the Methods section (Cellular Thermal Shift Assay). […] Chemoluminescence signals were recorded with an FusionSL, Vilber Lourmat (peQlab) and quantified using FusionCapt Advance FX7 16.01c software.
# serotonin transporter = system: serotonin transporter; design: method as in PMID 21785940; conditions: neuroblastoma cells; cited from earlier work
# dopamine transporter = system: dopamine transporter; design: method as in PMID 21785940; conditions: neuroblastoma cells; cited from earlier work
# T1 sequence (P17752 102-402): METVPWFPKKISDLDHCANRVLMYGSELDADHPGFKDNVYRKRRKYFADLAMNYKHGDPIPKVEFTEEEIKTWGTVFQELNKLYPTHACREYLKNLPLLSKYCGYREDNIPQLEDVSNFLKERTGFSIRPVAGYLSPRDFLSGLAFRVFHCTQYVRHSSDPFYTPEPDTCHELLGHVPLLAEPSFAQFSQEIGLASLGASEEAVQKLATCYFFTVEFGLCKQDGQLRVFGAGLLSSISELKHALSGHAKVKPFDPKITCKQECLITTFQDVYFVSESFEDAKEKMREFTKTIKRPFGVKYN
# T5 sequence (P17752 102-402, stated change not applied): as the sequence (P17752 102-402) above
# T3 sequence (P07101 1-497 isoform P07101-3): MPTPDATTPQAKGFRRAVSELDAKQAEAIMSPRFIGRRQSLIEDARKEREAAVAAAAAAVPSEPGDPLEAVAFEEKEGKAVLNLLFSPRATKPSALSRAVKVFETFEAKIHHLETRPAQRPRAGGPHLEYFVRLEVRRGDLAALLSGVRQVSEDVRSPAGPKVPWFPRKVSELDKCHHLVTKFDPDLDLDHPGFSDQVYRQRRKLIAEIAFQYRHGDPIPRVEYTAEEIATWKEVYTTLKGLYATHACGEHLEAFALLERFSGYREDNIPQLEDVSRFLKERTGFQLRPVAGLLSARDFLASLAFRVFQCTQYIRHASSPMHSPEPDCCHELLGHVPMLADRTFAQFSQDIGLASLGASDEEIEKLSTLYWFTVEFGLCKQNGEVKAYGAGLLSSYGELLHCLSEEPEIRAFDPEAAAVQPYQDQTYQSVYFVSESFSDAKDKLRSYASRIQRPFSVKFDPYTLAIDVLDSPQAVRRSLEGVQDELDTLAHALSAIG
structure (smiles),measurement,setting,value
"Nc1ccccc1NC(=O)c1ccc(CNc2nccc(-c3cccnc3)n2)cc1 [mocetinostat, reference compound]",IC50,HDAC 1; ref 2 (PMID: 23829483),0.098 ± 0.055 µM
same,inhibitory activity against all the AAAHs,[1],completely inactive
same,IC50,HDAC 8; ref 2 (PMID: 23829483),35 ± 4.4 µM
same,"Tm (°C) ± SD (°C), primary screen","TPH1; 0.075 mg/mL TPH1, 0.5% DMSO, three independent measurements (a: duplicates)",54.5 ± 0.2 °C
same,ΔTm at 50 µM,"TPH1; vs averaged Tm of 0.5% DMSO controls, read-out: ΔTm (°C) ± SD (°C), primary screen",-0.8 °C
"O=C(/C=C/c1ccccc1Oc1ccc(Cl)cc1)NO [TB57, (2E)-3-[2-(4-Chlorophenoxy)phenyl]-N-hydroxy-2-propenamide]",IC50,HDAC 1; ref 6 (10.1002/cmdc.201800238),13.4 ± 2.4 µM
same,IC50,human TPH2,195 µM
same,IC50,HDAC 8; ref 6 (10.1002/cmdc.201800238),0.15 ± 0.03 µM
same,IC50 (μM) TH,human TH isoform 1 (TH1),no inhibition
same,"ΔTm (°C) ± SD (°C), primary screen",TPH1; vs averaged Tm of 0.5% DMSO controls,-3.4 ± 0.1 °C
same,IC50,HDAC 6,11.4 ± 2.5 µM
same,IC50,"human PAH; best-fit IC50 (± SE), nonlinear regression, N.A. = no activity, read-out: IC50 (μM) PAH",1.55 µM and 1.6 µM
same,selectivity toward PAH in comparison to TPH1,human PAH; from IC50 values of Table 2,30 fold
same,selectivity toward PAH in comparison to TPH2,human PAH; from IC50 values of Table 2,125 fold
same,IC50,[2],49.6 µM
same,ΔTm of endogenous PAH (CETSA),endogenous PAH,4.8 °C
CC(/C=C/C(=O)NO)=C\[C@@H](C)C(=O)c1ccc(N(C)C)cc1 [trichostatin A],increase of serotonin transporter expression,serotonin transporter,15 fold
same,increase of dopamine transporter expression,dopamine transporter,45 fold
